“And” between values parts separate entries of the source, which are not always exact repeats. Equal entries are not always repeated.
Target: PARP1 enzyme (Homo sapiens (Human), UniProt P09874)
Experiment: PARP Mass Spectroscopy Assay (PARP1 enzymatic assay, nicotinamide detection)
Assay type: biochemical
Conditions: 5 nM PARP1, 5 uM β-NAD, 60 min at RT, NAM by mass spectrometry
Source text: Materials and Reagents: The PARP1 enzyme was purchased from BPS Bioscience (cat #80501). Tris-HCl, pH 8.0 was purchased from Corning (cat #46-031-CM). Magnesium chloride was purchased from Thermo Fisher Scientific (previously Honeywell Fluka, cat #63020-1L). All other assay components, activated DNA (cat #D4522), core histones (cat #SRP6590), β-Nicotinamide adenine dinucleotide (β-NAD—cat #N8285), 3ABA PARP1 small molecule inhibitor (from the PARP1 Enzyme Activity Assay kit, cat #17-10149), Sodium Chloride (NaCl, cat #56546-1L), Triton X-100 (cat #93443), Dithiothreitol (DTT, cat #43816-250 ML) were all purchased from Millipore Sigma.
Assay Buffer: The assay buffer includes the following reagents: 50 mM Tris-HCl pH 8.0, 50 mM NaCl, 10 mM, MgCl2, 0.01% Triton X-100, and 1 mM DTT.
PARP1 enzymatic assays were performed in 384-well plates in a total volume of 20 μL in the assay buffer. For concentration response curves, compounds were serially diluted 3-fold from 2 mM highest concentration […] to generate a 10-point curve, and 125 nL was transferred to the assay plate using the Echo acoustic dispenser for a final concentration range of 26.6 μM to […] in 10 μL reaction. Five microliters of 10 nM PARP1 enzyme and 100 nM core histones (2×) mix were added to the assay plates and pre-incubated for 30 mins at room temperature (RT). The reaction was initiated by the addition of a 5 μL of 10 uM β-NAD plus 0.02 mg/mL activated DNA (2×) mix. The reaction is incubated for 60 min at RT. The final concentration of the PARP1 enzyme and substrate concentrations were 5 nM and 5 uM, respectively. The positive control (high signal) and negative control (low signal) wells had 125 nL of DMSO in place of compounds. After the incubation is complete, the reaction is stopped by the addition of 10 μL of 10 uM of the 3ABA PARP1 inhibitor, incubated for 5 min at RT, and placed in the −80 C freezer for shipment to the Valo Health site in Branford Connecticut where mass spectrometry will be used to directly detect quantities of nicotinamide (NAM).
The percent inhibition of enzyme activity was calculated according to the following equation: […]
The values of Ssample, Shigh, and Slow in the equation refer to the NAM concentration detected in the assay wells, high control wells, and low control wells, respectively. To determine inhibitor IC50 values, % inhibition of the CRCs (concentration response curves) was fitted to the standard single-site four-parameter logistic equation.

PARP1 enzyme, sequence (P09874 whole entry): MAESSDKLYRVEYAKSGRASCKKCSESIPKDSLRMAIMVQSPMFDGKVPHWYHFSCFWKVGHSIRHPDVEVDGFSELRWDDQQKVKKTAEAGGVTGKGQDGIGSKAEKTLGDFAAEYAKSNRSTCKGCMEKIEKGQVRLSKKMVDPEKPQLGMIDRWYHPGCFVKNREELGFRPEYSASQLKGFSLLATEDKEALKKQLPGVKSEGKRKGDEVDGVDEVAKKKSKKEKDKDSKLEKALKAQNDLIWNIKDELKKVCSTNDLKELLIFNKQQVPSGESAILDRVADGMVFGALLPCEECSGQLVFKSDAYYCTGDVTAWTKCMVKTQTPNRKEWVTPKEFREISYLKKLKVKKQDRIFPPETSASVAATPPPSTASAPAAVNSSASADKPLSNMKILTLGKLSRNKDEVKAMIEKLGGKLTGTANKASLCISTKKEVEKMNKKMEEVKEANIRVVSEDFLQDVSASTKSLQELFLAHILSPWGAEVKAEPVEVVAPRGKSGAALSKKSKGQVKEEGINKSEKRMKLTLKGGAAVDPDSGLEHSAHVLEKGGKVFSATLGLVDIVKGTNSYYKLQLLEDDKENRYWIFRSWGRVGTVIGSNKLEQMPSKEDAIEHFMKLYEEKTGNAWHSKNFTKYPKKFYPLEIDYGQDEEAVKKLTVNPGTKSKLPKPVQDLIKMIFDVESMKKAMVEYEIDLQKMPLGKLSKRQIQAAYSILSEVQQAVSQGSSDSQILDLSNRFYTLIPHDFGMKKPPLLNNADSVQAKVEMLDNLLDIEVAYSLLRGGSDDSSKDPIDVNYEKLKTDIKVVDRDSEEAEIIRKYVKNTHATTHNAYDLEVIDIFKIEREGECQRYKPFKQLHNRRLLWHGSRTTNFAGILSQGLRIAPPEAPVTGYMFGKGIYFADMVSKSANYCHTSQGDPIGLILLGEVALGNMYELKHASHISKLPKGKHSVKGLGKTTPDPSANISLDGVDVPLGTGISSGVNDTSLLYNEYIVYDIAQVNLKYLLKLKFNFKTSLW

| SMILES | IC50 |
| --- | --- |
| C[C@H]1Nc2cc(F)cc3c(=O)[nH]nc(c23)[C@@H]1[C@@H]1CCCCN1C [Compound 0199B] | 118 nM |
| O=c1[nH]nc2c3c(cc(F)cc13)NC(C1(F)CC1)[C@H]2c1ccccc1Cl (stereo partly shown) [Compound 0260B] | 106 nM |
| N#Cc1ccc([C@@H]2CNc3cc(F)cc4c(=O)[nH]nc2c34)c(F)c1 [Compound 0187A] | 9 nM |
| C[C@H]1Nc2cc(F)cc3c(=O)[nH]nc(c23)[C@@H]1C1CCN(C)CC1 [Compound 0197A] | 447 nM |
| CC(=O)N1CCC([C@H]2Nc3cc(F)cc4c(=O)[nH]nc(c34)[C@@H]2c2ccccc2Cl)CC1 [Compound 0223A] | 1200 nM |
| N#Cc1ccc([C@H]2c3n[nH]c(=O)c4cc(F)cc(c34)N[C@@H]2C2CCC(F)(F)CC2)cc1F [Compound 0214A] | 108 nM |
| Cn1ncnc1[C@@H]1c2n[nH]c(=O)c3cc(F)cc(c23)N[C@H]1C1CCN(C2CCC(F)(F)CC2)CC1 [Compound 0266A] | 1680 nM |
| O=c1[nH]nc2c3c(cc(F)cc13)NC[C@H]2c1ccc(Cl)cc1F [Compound 0189A] | 79 nM |
| O=c1[nH]nc2c3c(cc(F)cc13)N[C@H](C1CCC(F)(F)CC1)[C@H]2c1ccccc1Cl [Compound 0213A] | 352 nM |
| CC1Nc2cc(F)cc3c(=O)[nH]nc(c23)C1C1CCCN(C)C1 (stereo not shown) [Compound 0198-5] | 244 nM |
| O=c1[nH]nc2c3c(cc(F)cc13)N[C@H](C1CCN(C3CCC(F)(F)CC3)CC1)[C@H]2c1ccccc1Cl [Compound 0261A] | 896 nM |
| CC(C)(C)C[C@H]1Nc2cc(F)cc3c(=O)[nH]nc(c23)[C@@H]1c1c(F)cc(F)cc1F [Compound 0219A] | 512 nM |
| N#Cc1ccc([C@@H]2CNc3cc(F)cc4c(=O)[nH]nc2c34)cc1F [Compound 0186A] | 243 nM |
| O=c1[nH]nc2c3c(cc(F)cc13)N[C@@H](C1CCN(C3CCC(F)(F)CC3)CC1)[C@@H]2c1ccccc1Cl [Compound 0261B] | 301 nM |
| O=c1[nH]nc2c3c(cc(F)cc13)N[C@H]([C@@H]1CCOC1)[C@H]2c1ccccc1Cl [Compound 0121B] | 236 nM |
| COCCN1CCC(C2Nc3cc(F)cc4c(=O)[nH]nc(c34)C2c2ccccc2Cl)C1 (stereo not shown) [Compound 0117-8, 12-(2-chlorophenyl)-7-fluoro-11-[1-(2-methoxyethyl)pyrrolidin-3-yl]-2,3,10-triazatricyclo[7.3.1.0^{5,13}]trideca-1,5(13),6,8-tetraen-4-one] | 566 nM |
| COCCN1CCC(C2Nc3cc(F)cc4c(=O)[nH]nc(c34)C2c2ccc(F)cc2F)C1 (stereo not shown) [Compound 0111-6, 12-(2,4-difluorophenyl)-7-fluoro-11-[1-(2-methoxyethyl)pyrrolidin-3-yl]-2,3,10-triazatricyclo[7.3.1.0^{5,13}]trideca-1,5(13),6,8-tetraen-4-one] | 164 nM |
| CN1CCC([C@H]2Nc3cc(F)cc4c(=O)[nH]nc(c34)[C@@H]2c2ccccc2Cl)CC1 [Compound 0116A, (8R,9R)-9-(2-chlorophenyl)-5-fluoro-8-(1-methylpiperidin-4-yl)-2,7,8,9-tetrahydro-3H-pyrido[4,3,2-de]phthalazin-3-one] | 5280 nM |
| C[C@@H]1Nc2cc(F)cc3c(=O)[nH]nc(c23)[C@H]1c1ccc(C#N)cc1F [Compound 0194B] | 35 nM |
| O=c1[nH]nc2c3c(cc(F)cc13)NC(C1CCC(F)(F)CC1)C2c1c(F)cc(F)cc1F (stereo not shown) [Compound 0212A] | 15 nM and 20 nM |
| O=c1[nH]nc2c3c(cc(F)cc13)NC(C1CCCN1)C2c1ccccc1Cl (stereo not shown) [Compound 0181-6] | 1200 nM |
| O=c1[nH]nc2c3c(cc(F)cc13)N[C@@H]([C@H]1CCOC1)[C@@H]2c1ccccc1Cl [Compound 0121C] | 854 nM |

Continued by falling IC50, values first:

| IC50 | SMILES |
| --- | --- |
| 103 nM | O=c1[nH]nc2c3c(cc(F)cc13)NC(C1(F)CC1)[C@H]2c1ccc(Cl)cc1F (stereo partly shown) [Compound 0255B] |
| 99 nM | O=c1[nH]nc2c3c(cc(F)cc13)NC[C@@H]2c1ccc(Cl)c(F)c1 [Compound 0188B, (S)-9-(4-chloro-3-fluorophenyl)-5-fluoro-2,7,8,9-tetrahydro-3H-pyrido[4,3,2-de]phthalazin-3-one] |
| 91 nM | O=c1[nH]nc2c3c(cc(F)cc13)NC(C1CCNC1)C2c1ccccc1Cl (stereo not shown) [Compound 0171, 12-(2-chlorophenyl)-7-fluoro-11-(pyrrolidin-3-yl)-2,3,10-triazatricyclo[7.3.1.0^{5,13}]trideca-1,5(13),6,8-tetraen-4-one] |
| 70 nM | O=c1[nH]nc2c3c(cc(F)cc13)NC(C1CCNC1)C2c1ccc(F)cc1F (stereo not shown) [Compound 0173A, 12-(2,4-difluorophenyl)-7-fluoro-11-(pyrrolidin-3-yl)-2,3,10-triazatricyclo[7.3.1.0^{5,13}]trideca-1,5(13),6,8-tetraen-4-one] |
| 65 nM | C[C@H]1Nc2cc(F)cc3c(=O)[nH]nc(c23)[C@@H]1[C@H]1CCCCN1C [Compound 0199A] |
| 57 nM | O=c1[nH]nc2c3c(cc(F)cc13)N[C@@H](CF)[C@@H]2c1ccc(Cl)cc1F [Compound 0252A] |
| 50 nM | CN1CCC[C@H]([C@@H]2CNc3cc(F)cc4c(=O)[nH]nc2c34)C1 [Compound 0191C] |
| 46 nM | CN1CCC[C@H]([C@H]2CNc3cc(F)cc4c(=O)[nH]nc2c34)C1 [Compound 0191-8] |
| 45 nM | C[C@@H]1Nc2cc(F)cc3c(=O)[nH]nc(c23)[C@H]1[C@H]1CCCN(C)C1 [Compound 0198C] |
| 39 nM | C[C@H]1Nc2cc(F)cc3c(=O)[nH]nc(c23)[C@H]1[C@@H]1CCCN(C)C1 [Compound 0198B] |
| 37 nM | CN1CCC[C@H]([C@H]2CNc3cc(F)cc4c(=O)[nH]nc2c34)C1 [Compound 0191B] |
| 35 nM | CN1CCC[C@@H]([C@H]2CNc3cc(F)cc4c(=O)[nH]nc2c34)C1 [Compound 0191D] |
| 30 nM | N#Cc1ccc([C@H]2c3n[nH]c(=O)c4cc(F)cc(c34)N[C@@H]2C2CCN(C3CCC(F)(F)CC3)CC2)c(F)c1 [Compound 0276B] |
| 25 nM | C[C@@H]1Nc2cc(F)cc3c(=O)[nH]nc(c23)[C@H]1[C@@H]1CCCCN1C [Compound 0199D] |
| 23 nM | CC(C)[C@H]1Nc2cc(F)cc3c(=O)[nH]nc(c23)[C@@H]1c1ccccc1Cl [Compound 0222A] |
| 22 nM | CN1CCCC[C@@H]1[C@H]1CNc2cc(F)cc3c(=O)[nH]nc1c23 [Compound 0192B] |
| 18 nM | C[C@@H]1Nc2cc(F)cc3c(=O)[nH]nc(c23)[C@H]1c1ccccc1Cl [Compound 0172B, (8S,9S)-9-(2-chlorophenyl)-5-fluoro-8-methyl-2,7,8,9-tetrahydro-3H-pyrido[4,3,2-de]phthalazin-3-one] |
| 18 nM | CC1Nc2cc(F)cc3c(=O)[nH]nc(c23)C1c1ccc(Cl)c(F)c1 (stereo not shown) [Compound 0195-5, 9-(4-chloro-3-fluorophenyl)-5-fluoro-8-methyl-2,7,8,9-tetrahydro-3H-pyrido[4,3,2-de]phthalazin-3-one] |
| 13 nM | N#Cc1ccc(C2c3n[nH]c(=O)c4cc(F)cc(c34)NC2c2c(F)cc(F)cc2F)cc1F (stereo not shown) [0092A; 0092B, 2-fluoro-4-(5-fluoro-3-oxo-8-(2,4,6-trifluorophenyl)-2,7,8,9-tetrahydro-3H-pyrido[4,3,2-de]phthalazin-9-yl)benzonitrile] |
| 13 nM | O=c1[nH]nc2c3c(cc(F)cc13)NC(COCc1ccccc1)C2c1ccc(F)cc1F (stereo not shown) [Compound 0267-4] |
| 9 nM | CC1Nc2cc(F)cc3c(=O)[nH]nc(c23)C1c1ccc(Cl)cc1F (stereo not shown) [Compound 0196-5] |
| 8 nM | O=c1[nH]nc2c3c(cc(F)cc13)N[C@H](CF)[C@H]2c1ccc(Cl)cc1F [Compound 0252B] |
| 7 nM | O=c1[nH]nc2c3c(cc(F)cc13)N[C@@H](C1CCN(C3CCC(F)(F)CC3)CC1)[C@@H]2c1ccc(F)cc1F [Compound 0271B] |
| 6 nM | CC[C@H]1Nc2cc(F)cc3c(=O)[nH]nc(c23)[C@@H]1c1ccccc1Cl [Compound 0206B, (11R,12R)-12-(2-chlorophenyl)-11-ethyl-7-fluoro-2,3,10-triazatricyclo[7.3.1.0^{5,13}]trideca-1,5(13),6,8-tetraen-4-one] |
| 4 nM | O=c1[nH]nc2c3c(cc(F)cc13)N[C@@H](C1(F)CC1)[C@@H]2c1ccc(Cl)cc1F [Compound 0255A] |
| 4 nM | O=c1[nH]nc2c3c(cc(F)cc13)NC(C1CCN(C3CCC(F)(F)CC3)CC1)C2c1ccc(F)cc1F (stereo not shown) [Compound 0271-6] |
| 2 nM | O=c1[nH]nc2c3c(cc(F)cc13)N[C@H](C1(F)CC1)[C@H]2c1ccccc1Cl [Compound 0260A] |

Reference: patent US20250346599A1, “TRICYCLIC PHTHALAZINONE PARP INHIBITORS AND METHODS OF USE” (Valo Health, Inc., priority 2022, published 2025)
